This is an account of results in patent US20050282910A1, “Methods of application of chemical compounds having therapeutic activities in treating cancers” (priority 2003, published 2005).

In assay [1] the test system is SMMC7721. As to the kind of experiment: Enhancement of anticancer agent-induced apoptosis and necrosis, Anexin V-FITC/PI. In kind it is cell-based, human. To be noted: 48 hours; for Apoptotic(%) / Necrotic(%): doxorubicin 0.5 μg/ml. The procedure:
(§1) To illustrate the activities of Schisandrin B or its analogs enhancing the apoptosis of cancer cells induced by an anticancer agent according to the present disclosure, human cancer cell line SMMC7721, a non-drug-resistant hepatic cancer cell line, and MCF7, a non-drug-resistant breast cancer cell line, were selected for use. Assays were carried out in triplicates against SMMC7721 or MCF7. […] Cells were collected and the apoptotic cells and necrotic cell percentages were determined using Anexin V-FITC/PI kit (Sigma, St. Louis, Mo., USA) according to manufacturer's instructions. Alternatively, the apoptotic and necrotic cell percentages were measured using DNA Plus kit (Becton-Dickinson, USA) according to the manufacturer's instructions.

The subject of assay [2] is MCF7. The assay is described as above. The format is cell-based, human. The settings on record: 48 hours; for Apoptotic + necrotic (%): MCF7, doxorubicin 0.5 μg/ml, Schisandrin B 20 μg/ml. On the procedure: as §1
Assay [3] has as its system human leukemia MDR cell line K562/adr. As to the kind of experiment: Reversal of P-glycoprotein-mediated drug resistance by Schisandrin A, Schisandrol A, Schisantherin A, MTT cytotoxicity of anticancer agents. In kind it is cell-based. The settings on record: for IC50: Homo sapiens; for IC50 (ng/ml) +Schisandrin A: anticancer agent in the presence of Schisandrin A (10 μg/ml); for IC50 (ng/ml) +Schisantherin A: anticancer agent in the presence of Schisantherin A (10 μg/ml). The procedure: Assays were carried out in triplicate against human leukemia MDR cell line K562/adr, human breast cancer MDR cell line MCF7/adr, and human epidermoid carcinoma MDR cell line KBv200.

Assay [4] relates to MCF7/adr. Description: Reversal of drug resistance by ethanol extracts of Schisandra chinensis fruit, MTT cytotoxicity of anticancer agents. The settings on record: for IC50: Homo sapiens, NCI/ADR-RES, 72 h, read-out: IC50 (ng/ml) −ethanol extract; for IC50 (ng/ml) +ethanol extract: anticancer agent in the presence of ethanol extracts (50 μg/ml), 72 hours.
Assay [5] has as its system human epidermoid carcinoma MDR cell line KBv200. To be noted: for IC50 (ng/ml) +Schisandrin A: anticancer agent in the presence of Schisandrin A (10 μg/ml); for IC50 (ng/ml) +Schisandrin A / IC50 (ng/ml) +Schisantherin A: 72 hours; for IC50 (ng/ml) +Schisantherin A: anticancer agent in the presence of Schisantherin A (10 μg/ml).
In assay [6] the test system is human breast cancer MDR cell line MCF7/adr. The settings on record: for IC50 (ng/ml) +Schisandrin A: anticancer agent in the presence of Schisandrin A (10 μg/ml); for IC50 (ng/ml) +Schisandrin A / IC50 (ng/ml) +Schisantherin A: 72 hours; for IC50 (ng/ml) +Schisantherin A: anticancer agent in the presence of Schisantherin A (10 μg/ml).
Assay [7] deals with K562/adr. Description: Reversal of drug resistance by ethanol extracts of Schisandra chinensis fruit, MTT cytotoxicity of anticancer agents. In kind it is cell-based, human. The settings on record: for IC50 (ng/ml) +ethanol extract: anticancer agent in the presence of ethanol extracts (50 μg/ml). The procedure: Assays were carried out in triplicate against human MDR cancer cell lines K562/adr, KBv200, and MCF7/adr. […] Alternatively, flow cytometry assays using FACS Calibur equipped with software Cellquest 3.1f (Becton-Dickinson, Holbrook, N.J.) were applied to count the cell numbers in each sample.

Assay [8] relates to HL60/adr. Description: Reversal of MRP1-mediated drug resistance, MTT cytotoxicity of anticancer agents. In kind it is cell-based, human. The settings on record: for IC50: Homo sapiens, HL60/ADR, 72 h. The procedure:
Assays were carried out in triplicate against MDR cancer cell HL60/adr. MTT assays as described previously (X.

Assay [9] has as its system human breast cancer MDR cell line MCF7/adr. Description: cells. The settings on record: NCI/ADR-RES, 72 h.
Assay [10] concerns human epidermoid carcinoma MDR cell line KBv200. Description: cells. To be noted: KBv200, 72 h.
Assay [11] concerns KBv200. As to the kind of experiment: Reversal of drug resistance by ethanol extracts of Schisandra chinensis fruit, MTT cytotoxicity of anticancer agents. The settings on record: Homo sapiens, KBv200, 72 h, read-out: IC50 (ng/ml) −ethanol extract.
Assay [12] concerns the target T1, MRP1 (Homo sapiens, UniProt P33527).
T1 construct: human cancer cell line HL60/adr, an MDR cell line characterized by MRP1 overexpression; endogenous in cells; host or cells: HL60/adr (human MDR cancer cell line)
As to the kind of experiment: Daunorubicin accumulation in HL60/adr cells (MRP1-mediated drug efflux), flow cytometry. In kind it is cell-based. The settings on record: 2 μg/ml daunorubicin, 90 minutes, FIG. 6. The text has this:
MRP1 functions as a drug pump that unilaterally pumps the anticancer agents out of MDR cancer cells. Inhibition of MRP1 results in an increase of intracellular drug concentration within cancer cells.
(In flow cytometry, cells or beads pass a laser one at a time.)

Setting [13] is: SMMC7721, Schisandrin B 20 μg/ml.
[14] abbreviates: read-out: IC50 (ng/ml) −Schisandrin A.
Setting [15] is: read-out: IC50 (ng/ml) −Schisantherin A.
[16] abbreviates: Schisandrin B 20 μg/ml with doxorubicin 0.5 μg/ml.

Converted amounts (≈) assume the structure as drawn. Where two headings read alike, the source gives them in different places.

T1 sequence (P33527 whole entry): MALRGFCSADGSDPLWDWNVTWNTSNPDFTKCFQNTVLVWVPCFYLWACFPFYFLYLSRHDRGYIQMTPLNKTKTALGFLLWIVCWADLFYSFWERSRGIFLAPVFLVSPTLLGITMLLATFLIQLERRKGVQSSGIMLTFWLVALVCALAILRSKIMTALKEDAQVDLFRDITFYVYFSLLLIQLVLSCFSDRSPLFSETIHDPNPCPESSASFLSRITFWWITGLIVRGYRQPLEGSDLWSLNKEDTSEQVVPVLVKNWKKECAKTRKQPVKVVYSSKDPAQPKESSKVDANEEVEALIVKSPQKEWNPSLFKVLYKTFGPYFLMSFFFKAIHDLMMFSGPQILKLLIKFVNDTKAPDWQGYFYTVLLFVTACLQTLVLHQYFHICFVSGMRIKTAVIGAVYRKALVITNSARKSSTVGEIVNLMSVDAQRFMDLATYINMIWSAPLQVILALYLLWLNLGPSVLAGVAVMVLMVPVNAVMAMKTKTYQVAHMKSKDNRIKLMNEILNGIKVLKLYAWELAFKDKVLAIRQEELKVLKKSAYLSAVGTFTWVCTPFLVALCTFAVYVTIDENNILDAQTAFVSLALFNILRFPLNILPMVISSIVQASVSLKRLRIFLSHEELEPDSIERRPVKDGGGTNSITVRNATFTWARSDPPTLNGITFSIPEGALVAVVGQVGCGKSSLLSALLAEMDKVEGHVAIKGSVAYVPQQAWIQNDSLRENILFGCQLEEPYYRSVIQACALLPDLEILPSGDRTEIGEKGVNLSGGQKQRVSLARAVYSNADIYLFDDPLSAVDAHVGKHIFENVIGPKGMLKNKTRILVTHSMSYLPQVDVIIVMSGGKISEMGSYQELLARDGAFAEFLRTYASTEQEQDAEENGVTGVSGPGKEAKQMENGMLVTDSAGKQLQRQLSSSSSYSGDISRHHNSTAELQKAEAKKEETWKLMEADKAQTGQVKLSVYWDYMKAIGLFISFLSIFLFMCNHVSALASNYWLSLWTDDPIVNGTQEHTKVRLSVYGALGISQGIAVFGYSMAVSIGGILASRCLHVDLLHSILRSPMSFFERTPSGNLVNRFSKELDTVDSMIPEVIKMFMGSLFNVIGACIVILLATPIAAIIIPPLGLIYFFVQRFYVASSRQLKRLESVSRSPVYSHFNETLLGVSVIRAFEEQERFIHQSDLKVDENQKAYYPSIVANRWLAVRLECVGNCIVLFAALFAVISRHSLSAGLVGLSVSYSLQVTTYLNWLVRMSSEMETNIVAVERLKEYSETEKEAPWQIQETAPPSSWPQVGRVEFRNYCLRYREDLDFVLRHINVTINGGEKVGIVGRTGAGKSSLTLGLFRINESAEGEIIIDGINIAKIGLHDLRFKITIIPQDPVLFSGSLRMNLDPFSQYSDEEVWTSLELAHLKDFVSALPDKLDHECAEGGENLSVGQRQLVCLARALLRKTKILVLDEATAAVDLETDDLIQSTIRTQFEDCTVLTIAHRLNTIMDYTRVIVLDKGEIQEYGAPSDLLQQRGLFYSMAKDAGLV

As for `COc1cccc2c1C(=O)c1c(O)c3c(c(O)c1C2=O)C[C@@](O)(C(=O)CO)C[C@@H]3O[C@H]1C[C@H](N)[C@H](O)[C@H](C)O1` [doxorubicin], the “Apoptotic(%)” value in assay [1] (setting [13]) was 5.2 ± 2.6%. Also, the “Necrotic(%)” value in assay [1] (setting [13]) is 16.5 ± 4.3%. Further, in [2], the “Apoptotic + necrotic (%)” value is 7.2 ± 0.8%. In addition, the IC50 in assay [3] (K562/Adr, read-out: IC50 of doxorubicin toward K562/adr, in the absence of Schisandrol A) stood at 875 ± 248 ng/mL; in assay [3] (K562/Adr, read-out: IC50 of doxorubicin toward K562/adr, in the presence of Schisandrol A (10 μg/ml)) it was 168 ± 43 ng/mL.

As for `CC(=O)O[C@H]1C(=O)[C@@]2(C)[C@H]([C@H](OC(=O)c3ccccc3)[C@]3(O)C[C@H](OC(=O)[C@H](O)[C@@H](NC(=O)c4ccccc4)c4ccccc4)C(C)=C1C3(C)C)[C@]1(OC(C)=O)CO[C@@H]1C[C@@H]2O` [Taxol], the IC50 is 73 ± 27 ng/mL in assay [4]; 110 ± 20 ng/mL in assay [7] (Homo sapiens, anticancer agent in the absence of ethanol extracts, 72 hours, read-out: IC50 (ng/ml) −ethanol extract); 32 ± 9 ng/mL in assay [8] (HL60/adr, anticancer agent in the absence of Schisandrin A, 72 hours, read-out: IC50 (ng/ml) −Schisandrin A); 3 ng/mL in assay [8] (HL60/adr, anticancer agent in the absence of Schisandrin B, 72 hours, read-out: IC50 (ng/ml) −Schisandrin B); 32 ± 9 ng/mL in assay [8] (HL60/adr, anticancer agent in the absence of Schisantherin A, 72 hours, read-out: IC50 (ng/ml) −Schisantherin A); 40.5 ± 11 ng/mL (≈ 0.0474 µM) in assay [9] (setting [14]). Moreover, the IC50 in [9] (setting [15]) was determined as 40.6 ± 20.3 ng/mL (≈ 0.0475 µM); in [10] (setting [14]), 20.2 ± 2.8 ng/mL (≈ 0.0237 µM); in assay [10] (setting [15]), 20.2 ± 3.8 ng/mL (≈ 0.0237 µM); in [3] (K562/Adr, 72 h, K562/adr, anticancer agent in the absence of Schisandrin A, 72 hours, read-out: IC50 (ng/ml) −Schisandrin A) it was 38 ± 11 ng/mL; in assay [3] (K562/Adr, 72 h, K562/adr, anticancer agent in the absence of Schisantherin A, 72 hours, read-out: IC50 (ng/ml) −Schisantherin A), 38 ± 12 ng/mL. Also, the entries for the “IC50 (ng/ml) +ethanol extract” value in assay [4] (MCF7/adr) and in assay [7] (72 hours) were 25 ± 12 ng/mL and 41 ± 24 ng/mL, respectively. The “RF (reversal folds of drug resistance)” value was determined as 2.9 in assay [4] (MCF7/adr, by ethanol extracts (50 μg/ml)); 10.6 in assay [5] (by Schisandrin A (10 μg/ml)); 8.4 in assay [5] (by Schisantherin A (10 μg/ml)); 6.6 in [6] (by Schisandrin A (10 μg/ml)); 6.4 in [6] (by Schisantherin A (10 μg/ml)); 2.7 in assay [7] (by ethanol extracts (50 μg/ml)). Moreover, the “RF (reversal folds of drug resistance)” value is given as 7.8 in assay [8] (HL60/adr, by Schisandrin A (10 μg/ml)); greater than 3 in assay [8] (HL60/adr, by Schisandrin B (10 μg/ml)); 7.4 in assay [8] (HL60/adr, by Schisantherin A (10 μg/ml)); 5.9 in assay [3] (K562/adr, by Schisandrin A (10 μg/ml)); 34.5 in assay [3] (K562/adr, by Schisantherin A (10 μg/ml)). Moreover, the “IC50 (ng/ml) +Schisandrin A” value worked out at 1.91 ± 1.2 ng/mL in assay [5]; 6.1 ± 1.9 ng/mL in assay [6]; 4.1 ± 1.4 ng/mL in assay [8] (HL60/adr, anticancer agent in the presence of Schisandrin A (10 μg/ml), 72 hours); 6.4 ± 3.2 ng/mL in assay [3] (K562/adr, 72 hours). The “IC50 (ng/ml) +Schisantherin A” value is 2.4 ± 0.7 ng/mL in assay [5]; 6.3 ± 3.1 ng/mL in [6]; 4.3 ± 1.4 ng/mL in assay [8] (HL60/adr, anticancer agent in the presence of Schisantherin A (10 μg/ml), 72 hours); 1.1 ± 1.0 ng/mL in assay [3] (K562/adr, 72 hours). For the same compound, the “IC50 (ng/ml) +Schisandrin B” value in assay [8] (HL60/adr, anticancer agent in the presence of Schisandrin B (10 μg/ml), 72 hours) is less than 1 ng/mL.

Consider `COc1cccc2c1C(=O)c1c(O)c3c(c(O)c1C2=O)C[C@@](O)(C(C)=O)C[C@@H]3O[C@H]1C[C@H](N)[C@H](O)[C@H](C)O1` [Daunorubicin], for which the IC50 amounted to 320 ± 71 ng/mL in assay [4]; 20 ± 8 ng/mL in assay [11]; 2560 ± 413 ng/mL (≈ 4.85 µM) in assay [9] (setting [14]); 812 ± 193 ng/mL (≈ 1.54 µM) in [9] (setting [15]); 26.9 ± 8.1 ng/mL (≈ 0.051 µM) in [10] (setting [14]); 26.9 ± 4.3 ng/mL (≈ 0.051 µM) in assay [10] (setting [15]). Besides, the IC50 was 4780 ± 1380 ng/mL in assay [3] (K562/adr, anticancer agent in the absence of Schisandrin A, 72 hours, read-out: IC50 (ng/ml) −Schisandrin A) and 1300 ± 293 ng/mL in assay [3] (K562/adr, anticancer agent in the absence of Schisantherin A, 72 hours, read-out: IC50 (ng/ml) −Schisantherin A). Moreover, the “IC50 (ng/ml) +ethanol extract” value is 31 ± 10 ng/mL in assay [4] (MCF7/adr) and 150 ± 19 ng/mL in assay [7] (72 hours). Moreover, the “IC50 (ng/ml) +Schisandrin A” value in [5] is 2.47 ± 0.9 ng/mL; in assay [6], 245 ± 46 ng/mL; in [3] (K562/adr, 72 hours) it was 67.2 ± 21.3 ng/mL. Besides, the “IC50 (ng/ml) +Schisantherin A” value in [5] is 3.4 ± 1.3 ng/mL; in [6], 58.8 ± 21 ng/mL; in [3] (K562/adr, 72 hours), 71 ± 22 ng/mL.

On to `COc1cc2c(c(OC)c1OC)-c1c(cc3c(c1OC)OCO3)C[C@@H](C)[C@@H](C)C2` [Schisandrin B], for which the “Apoptotic(%)” value in assay [1] (setting [13]) was 2.4 ± 2.1%. The “Necrotic(%)” value in [1] (setting [13]) came out at 1.5 ± 0.9%. In addition, the “Apoptotic + necrotic (%)” value in assay [1] (SMMC7721, vincristine 0.5 μg/ml, Schisandrin B 20 μg/ml) is 2.6 ± 0.4%; in [2] it was 1.9 ± 0.1%. Besides, the “apoptosis and necrosis of SMMC7721 cells induced by doxorubicin (in words)” value in [1] (setting [16]) is “significantly enhanced”. The “apoptosis and necrosis of SMMC7721 induced by vincristine (in words)” value in assay [1] (Schisandrin B 20 μg/ml with vincristine 0.5 μg/ml) was “significantly enhanced”. In addition, the “apoptosis and necrosis of MCF7 induced by doxorubicin (in words)” value in [2] (setting [16]) was “significantly enhanced”. In addition, the “RF (reversal folds of vincristine resistance)” value in [8] (HL60/adr, Schisandrin B 10 μg/ml) was roughly 10.5; in [8] (HL60/adr, Schisandrin B 20 μg/ml) it was greater than 42. Also, in assay [8] (compound 10 μg/ml), the “drug sensitivity of HL60/adr toward the anticancer agents (in words)” value is on record as “enhanced”. In addition, the “daunorubicin accumulation within HL60/adr cells (in words)” value in [12] is on record as “increased proportionately with increasing concentration”. Further, in [12] (Schisandrin B 20 μg/ml), the “daunorubicin accumulation in HL60/adr cells versus absence of Schisandrin B” value is 4 folds.
